Assays:
[1] = tested on: MDCK cells; assay: Inhibition of T4 phage transcytosis across MDCK monolayers by chemical inhibitors; type: cell-based, canine; settings: for Inhibitor transcytosis Median ± s.d.: T4 phages across MDCK pretreated 18 hrs: Brefeldin A 5 μgmL^−1, Wortmannin 100 nM, Bafilomycin 0.5 μM, Chloroquine 100 μM, W-7 100 μM, solvent 7.9 ± 3 × 10^4; for effect of inhibitor on phage transcytosis: T4 phages across inhibitor-treated MDCK cells vs solvent control
Description: All cells were seeded at a density of 0.5-1×10^6 cells per well and allowed to grow to confluency (3-5 days). For apical-to-basal transcytosis the apical wells were incubated in Hanks Buffered Salt Solution (HBSS) at pH 6.0 and basal cells in HBSS at pH 7.4 for two hours to mimic pH-dependent uptake (2). For basal-to-apical transcytosis the buffers were switched. Bacteriophages were applied with the HBBS pH 6.0 buffer, incubated with cells for two hours and phage from both apical and basal cell layers quantified by plating with bacterial host.
Permeation of phages throughout the eukaryotic cell. The mechanism of phage access to Eukaryotic cells remains ambiguous (22, 24, 29). […] Inhibition of phage transcytosis was reported as the percentage of phages transcytosed across inhibitor-treated cells, compared to cells treated with a solvent control (FIG. 3A and Table S3).
Before this invention, the mechanism of phage transcytosis across eukaryotic cells remained ambiguous, see e.g., Duerkop et al., 2013, Resident viruses and their interactions with the immune system, Nat Immunol 14:654-9; Merril, et al., 1996, Long-circulating bacteriophage as antibacterial agents, Proc Natl Acad Sci 93:3188-3192; Aronow, et al., 1964, Electron microscopy of in vitro endocytosis of T2 phage by cells from rabbit perioneal exudate, J Exp Med 120. […] Inhibition of phage transcytosis was reported as the percentage of phages transcytosed across inhibitor-treated cells compared to cells treated with a solvent control (FIG. 13).

[2] = tested on: MDCK cells; assay: Fluorescence-positive MDCK cells after treatment with labeled T4 phages; type: cell-based, canine; settings: n=1008, mean
Source text: T4 phage were fluorescently labeled and visualized within MDCK cells (FIG. 4A-C).

Row | SMILES | Inhibitor transcytosis Median ± s.d. [1] | effect of inhibitor on phage transcytosis [1] | phages transcytosed compared to a solvent control ([1]; T4 phages across inhibitor-treated MDCK cells) | proportion of fluorescence-positive cells treated with BFA and labeled T4 phages [2]
1 | CCN(CC)CCCC(C)Nc1ccnc2cc(Cl)ccc12 (centres unmarked) [Chloroquine] | 5.3 ± 2.7 × 10^4 | no significant treatment effects |  | 
2 | CO/C1=C\C(C)=C\[C@@H](C)[C@@H](O)[C@@H](C)C/C(C)=C/C=C/[C@H](OC)[C@@H]([C@@H](C)[C@@H](O)[C@H](C)[C@@]2(O)C[C@@H](O)[C@H](C)[C@@H](C(C)C)O2)OC1=O [Bafilomycin] | 1 ± .19 × 10^5 | no significant treatment effects |  | 
3 | C[C@H]1CCC/C=C/[C@@H]2C[C@H](O)C[C@H]2[C@H](O)/C=C/C(=O)O1 [Brefeldin A] | 2.3 ± 2.2 × 10^4 | significant but incomplete inhibition of transcytosis | 38.5% | 9.98%
4 | NCCCCCCNS(=O)(=O)c1cccc2c(Cl)cccc12 [W-7] | 8.2 ± 1.1 × 10^4 | no significant treatment effects |  | 
5 | COC[C@H]1OC(=O)c2coc3c2[C@@]1(C)C1=C(C3=O)[C@@H]2CCC(=O)[C@@]2(C)C[C@H]1OC(C)=O [Wortmannin] | 8.1 ± 2.9 × 10^4 |  |  | 
